A short description of assay [1]: The compound was tested for the inhibition of subtilisin 72, activity expressed as Ki. On the set-up: species or system Bacillus subtilis.
Assay [2] is described as follows: The compound was tested for the inhibition of subtilisin 72, activity expressed as IC50. On the set-up: species or system Bacillus subtilis.

Where a SMILES comes first, the peptide text is derived from it. The star is where a group is joined. Cbz = O=C(OCc1ccccc1)*

The molecule `C[C@H](NC(=O)OCc1ccccc1)C(=O)N[C@@H](C)C(=O)N[C@H](C=O)Cc1ccccc1` (Cbz-Ala-Ala-Phe-aldehyde) came in with an inhibition constant Ki in assay [1] of 0.18 µM. For the same molecule, the IC50 in assay [2] is 0.9 µM. Molecule `C[C@H](NC(=O)OCc1ccccc1)C(=O)N[C@@H](C)C(=O)N[C@H](CO)Cc1ccccc1` (HELM PEPTIDE1{[O=C(OCc1ccccc1)[*:2]].A.A.[OC[C@H](Cc1ccccc1)N[*:1]]}$$$$V2.0) displayed a Ki in assay [1] of 1000 µM. This lies in the millimolar range.

A word on the Ki: it is the dissociation constant of the complex between target and ligand, obtained from inhibition or displacement. The low end stands for higher affinity, the high end for lower affinity. The IC50 is the concentration that gives 50% inhibition. Higher therefore signals a need for much substance.
